Data as given in patent US8071654B2, “Inhibitors of thromboxane formation and action” (priority 2000, dated 2011).

Assays:
human platelets = assay: collagen-evoked aggregation of washed human platelets; format: cell-based; details: single dose 1 μg added 2 min prior to collagen (2 μg); 350×10^6 washed human platelets in 0.5 ml
Procedure: Venous blood was obtained from healthy human subjects who had not taken NSAID's for at least two weeks. Blood was drawn into plastic syringes containing ACD. […] The platelet rich plasma was transferred into fresh plastic tubes and centrifuged at 400×g for 5 min. […] A platelet count was made, which determined the volume of platelet suspension needed to make up 350×10^6 cells for each measurement. The aliquot was diluted with medium to make 0.5 ml/assay/cuvette. Appropriate calibration of the aggregometer (PAP-4C) for 0% and 100% transmission was carried out through the use of a sample of platelet suspension and cell-free medium (37).
(§1) 0.5 ml of platelet suspension was added to siliconized glass tubes (four at a time) and heated with magnetic stirring to 37° for 1 min in a platelet aggregometer (PAP-4C). Either vehicle alone (ethanol, 1 μl) or hepoxilin analog was then added, followed two min later by agonist (collagen: 2 μg; PGH2: 100 ng/0.5 ml; U46619: 10 ng/0.5 ml or I-BOP: 2 ng/0.5 ml). The response was recorded for the next 5 min. In experiments where analysis of TxB2 and HHT were to be made by HPLC, the platelet suspension at the end of the experiment was diluted with ethyl acetate, 100 ng of prostaglandin B1 was added as internal standard, and the mixture was acidified to pH 3 with 0.1 N HCl. After centrifugation, the organic layer was separated, washed twice with water to neutrality, and evaporated to dryness. Half of the sample was taken and was resuspended in 1 ml ethyl acetate containing 20 μg ADAM reagent, and was left in the dark for 2 h (38). The solvent was then evaporated and the residue was acetylated with a solution of pyridine/acetic anhydride (3/1, v/v) during 16 h at 23°. The reagents were evaporated to dryness and the residue was resuspended in acetonitrile/water for HPLC analysis. In experiments where the conversion of tritiated PGH2 was to be monitored, the procedure described above was repeated with tritiated PGH2 instead of unlabeled PGH2. After extraction of the sample as described above, the radiolabeled compounds were analyzed by TLC. Dose response curves for varying amounts of test compounds were generated and the data expressed as % inhibition of collagen-induced platelet aggregation. Each point was investigated 5 times and statistical analysis of the data was carried out using Macintosh Statview statistical software.

platelet TP receptor = target: T1, platelet TP receptor (Homo sapiens, UniProt P21731); assay: binding of 125I-BOP to platelets; details: 10×10^6 cells/0.5 ml; read-out: IC50 for competition with 125I-BOP binding to platelets
T1 construct: endogenous in cells; host or cells: washed human platelets
T1 sequence (P21731 1-343): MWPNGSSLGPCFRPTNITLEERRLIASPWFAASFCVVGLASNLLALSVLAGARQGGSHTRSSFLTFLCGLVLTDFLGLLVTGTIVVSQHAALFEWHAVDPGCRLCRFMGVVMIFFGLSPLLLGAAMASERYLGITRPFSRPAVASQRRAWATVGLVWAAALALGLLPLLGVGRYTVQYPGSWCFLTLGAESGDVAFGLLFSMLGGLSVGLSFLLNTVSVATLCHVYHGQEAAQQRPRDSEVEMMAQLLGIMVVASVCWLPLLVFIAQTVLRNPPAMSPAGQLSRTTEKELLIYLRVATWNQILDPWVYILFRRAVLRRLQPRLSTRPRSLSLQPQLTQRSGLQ
Procedure: Washed platelets were prepared as described above, except that the platelet suspension was made up at a concentration of 10×10^6 cells/0.5 ml. The binding assay involved the addition of radioligand (30,000 cpm ^125I-BOP) to all tubes in triplicate, and either various doses of unlabeled I-BOP (10^−9-10^−7 M), PBT-3 (10^−9-10^−7 M) or U46619 (10^−9-10^−7 M) in 1 μl ethanol. Additional tubes containing excess unlabeled I-BOP were included to assess the extent of non-specific binding.

[1] = intra ocular pressure in rats, eye drops, TonoPen; format: in vivo, Brown Norway rats; details: one drop daily to left eye, after 10 days' treatment, vs untreated right eye
Procedure: Brown Norway rats (300 g) were purchased from Charles River (St. Constant, Que), and housed (two/cage) in an animal facility with free access to food and water. A light cycle of 12 h on and 12 h off was maintained. Animals were allowed to adjust for one week prior to treatment during which period they were handled daily to get them familiarized with the procedures.
Prior to treatment with test drugs, the rats' intra ocular pressures (IOP) were measured to establish baseline readings. One drop of Didocaine (0.5%, Dioptic Labs, Markham, Ont) was administered to each eye, and the pressure in each eye was measured with a TonoPen (Mentor XL, Innova Medical Ophthalmics, Toronto). The treatment protocol consisted of daily administration of one drop of one of the following substances to the left eye, the right eye being left untreated to act as a control. […] Following this, the animals were left without treatment for 2 weeks (wash-out), and then treatment was started again, the same animals receiving the same drugs. Results are calculated from at least 30 readings/test animal and presented as the mean±SEM (left eye vs right eye), with the exclusion of readings >50 and <10 which were considered spurious and artifactual readings.

[2] = cited from earlier work
TP receptor [3] = target: T2, TP receptor (Homo sapiens, UniProt P21731); assay: platelet aggregation evoked by the TxA2 mimic U46619; format: cell-based; details: aspirin 20 μg
T2 construct: endogenous in cells; host or cells: washed human platelets
T2 sequence (P21731 1-343): T1 sequence (P21731 1-343)
Procedure: (§2) Venous blood was obtained from healthy human subjects who had not taken NSAID's for at least two weeks. Blood was drawn into plastic syringes containing ACD. It was immediately centrifuged at 23° at 200×g for 15 min. The platelet rich plasma was transferred into fresh plastic tubes and centrifuged at 400×g for 5 min. The supernatant was discarded and the platelet sediment was resuspended in fresh medium containing NaCl (137 mM), KCl (1 mM), NaH2PO4, glucose (5.5 mM), HEPES (20 mM) and CaCl2 (1 mM) and allowed to stand at room temperature for 30 min. A platelet count was made, which determined the volume of platelet suspension needed to make up 350×10^6 cells for each measurement. The aliquot was diluted with medium to make 0.5 ml/assay/cuvette. Appropriate calibration of the aggregometer (PAP-4C) for 0% and 100% transmission was carried out through the use of a sample of platelet suspension and cell-free medium (37).
as §1

TP receptor [4] = target: T2, TP receptor; assay: platelet aggregation evoked by I-BOP; format: cell-based; details: 2 ng/0.5 ml, data not shown
Procedure: as §2, with “Appropriate calibration of the aggregometer (PAP-4C) for 0% and 100% transmission was carried out through the use of a sample of platelet suspension and cell-free medium (37).” left out
0.5 ml of platelet suspension was added to siliconized glass tubes (four at a time) and heated with magnetic stirring to 37° for 1 min in a platelet aggregometer (PAP-4C). […] The response was recorded for the next 5 min. […] In experiments where the conversion of tritiated PGH2 was to be monitored, the procedure described above was repeated with tritiated PGH2 instead of unlabeled PGH2. After extraction of the sample as described above, the radiolabeled compounds were analyzed by TLC. Dose response curves for varying amounts of test compounds were generated and the data expressed as % inhibition of collagen-induced platelet aggregation. […]

CCCCC/C=C\CC1CC1[C@H](O)/C=C\C/C=C\CCCC(=O)OC (stereo partly drawn) [PBT-4, 10(R)-hydroxy-11,12-cyclopropyl-eicosa-5Z,8Z,14Z-trienoic acid methyl ester]
inhibition of collagen-evoked aggregation (human platelets): inhibited the collagen effect

CCCCCC(O)C=CC1C2CC(CO2)C1CC=CCCCC(=O)O (stereo not drawn) [U46619, 5-heptenoic acid, 7-[6-(3-hydroxy-1-octenyl)-2-oxabicyclo-[2,2,1]-hept-5yl]-[1R-[1α,4α,5β(z), 6α(1E,3S*)]-9,11-dideoxy-9α,11α-methanoepoxyprostaglandin F2α, reference compound]
IC50 (platelet TP receptor): 4.1 nM

CC(C)(C)NC[C@H](O)COc1cccc2c1CCCC2=O [O-bunolol, reference compound]
effect on intra ocular pressure (IOP) ([1]; 0.5%): non-significant rise

CCCCC[C@H](O)/C=C/[C@H]1O[C@H]2C[C@H](O2)[C@@H]1C/C=C\CCCC(=O)O [thromboxane A2 (TxA2), thromboxane A2]
half life in the body [2]: 30 s

CC(=O)Oc1ccccc1C(=O)O [aspirin, reference compound]
effect on U46619-evoked aggregation (TP receptor [3]): did not block

CCCCC/C=C\CC1CC1/C=C/[C@@H](O)C/C=C\CCCC(=O)OC (stereo partly drawn) [PBT-1, 8(S)-hydroxy-11,12-cyclopropyl-eicosa-5Z,9E,14Z-trienoic acid methyl ester]
inhibition of collagen-evoked aggregation (human platelets): inhibited the collagen effect

CC(C)OC(=O)CCC/C=C\C[C@@H]1[C@@H](CC[C@@H](O)CCc2ccccc2)[C@H](O)C[C@@H]1O [latanoprost, reference compound]
effect on intra ocular pressure (IOP) ([1]; 0.005%): significant reduction in IOP

CCCCC/C=C\CC1CC1[C@@H](O)/C=C\C/C=C\CCCC(=O)N[C@H]1C(O)O[C@H](CO)[C@H](O)[C@@H]1O (stereo partly drawn) [PBT-30, 10(S)-hydroxy-11,12-cyclopropyl-eicosa-5Z, 8Z, 14Z-trienoic acid galactosamide]
effect on intra ocular pressure (IOP) ([1]; 0.005%): tended to reduce IOP but the effect did not reach statistical significance

O=C(O)CCC/C=C\C[C@@H]1[C@@H](/C=C/[C@H](O)COc2ccc(I)cc2)[C@H]2CC[C@@H]1O2 (relative stereo) [I-BOP, 5-heptenoic acid, 7-[3-[3-hydroxy-4-(4-iodophenoxy)-1-butenyl]-7-oxabicyclo [2.2.1]hept-2-yl]-,[15-[1α, 2α(Z), 3β(1E,3S*), 4α]], reference compound]
aggregation caused by the agonist (TP receptor [4]): 70%
IC50 (platelet TP receptor): 0.5 nM

CCCCC/C=C\CC1CC1/C=C/C(O)C/C=C\CCCC(=O)OC [PBT-2, 8(R)-hydroxy-11,12-cyclopropyl-eicosa-5Z,9E,14Z-trienoic acid methyl ester]
inhibition of collagen-evoked aggregation (human platelets): inhibited the collagen effect
